Assay results taken from US7074806B2, “Glucocorticoid mimetics, methods of making them, pharmaceutical compositions, and uses thereof” (Boehringer Ingelheim Pharmaceuticals, Inc., priority 2002, dated 2006).

Each compound was assayed against T1, human glucocorticoid receptor (GR) complex (Homo sapiens, UniProt P04150) (assay: Glucocorticoid Receptor Competitive Binding Assay (fluorescence polarization)). Conditions: competition with TAMRA-labeled dexamethasone for binding to GR; result in words only.
T1 construct: made in house; host or cells: insect expression system (baculovirus lysate)
T1 sequence (P04150 1-777): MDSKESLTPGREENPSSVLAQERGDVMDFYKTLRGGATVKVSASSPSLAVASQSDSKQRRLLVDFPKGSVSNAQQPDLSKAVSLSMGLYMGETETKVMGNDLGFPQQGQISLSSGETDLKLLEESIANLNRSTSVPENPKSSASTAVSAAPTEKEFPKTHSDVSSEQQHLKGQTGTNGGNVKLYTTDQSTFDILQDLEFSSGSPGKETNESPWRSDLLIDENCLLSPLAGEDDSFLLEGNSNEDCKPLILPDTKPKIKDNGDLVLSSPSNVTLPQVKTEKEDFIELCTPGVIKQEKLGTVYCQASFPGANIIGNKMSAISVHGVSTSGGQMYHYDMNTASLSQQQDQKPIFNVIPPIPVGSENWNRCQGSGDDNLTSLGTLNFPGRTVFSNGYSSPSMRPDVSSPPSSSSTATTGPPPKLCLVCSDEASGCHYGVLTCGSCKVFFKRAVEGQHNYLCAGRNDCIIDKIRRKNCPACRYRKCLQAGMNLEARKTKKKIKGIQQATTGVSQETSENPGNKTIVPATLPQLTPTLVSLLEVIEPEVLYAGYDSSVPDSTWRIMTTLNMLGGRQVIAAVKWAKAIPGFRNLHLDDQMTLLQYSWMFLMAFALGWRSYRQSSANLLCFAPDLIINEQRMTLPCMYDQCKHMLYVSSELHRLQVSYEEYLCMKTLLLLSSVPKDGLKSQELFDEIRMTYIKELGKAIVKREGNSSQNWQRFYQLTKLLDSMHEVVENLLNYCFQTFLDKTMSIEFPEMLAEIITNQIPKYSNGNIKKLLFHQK
Description: Compounds of the invention were evaluated for binding to the steroid receptor by a fluorescence polarization competitive binding assay. Detailed descriptions for preparation of recombinant glucocorticoid receptor (GR) complex used in the assay is described in Goldrick et al., U.S. provisional application No. 60/291,877, filed May 18, 2001 (corresponding to Goldrick et al., U.S. nonprovisional application No. 10/151,133, filed May 20, 2002, both incorporated herein by reference in their entirety. Preparation of the tetramethyl rhodamine (TAMRA)-labeled dexamethasone probe was accomplished using a standard literature procedure (M. Pons et al., J. Steroid Biochem., 1985, 22, pp. 267–273).
A. Glucocorticoid Receptor Competitive Binding Assay
Step 1. Characterization of the Fluorescent Probe
The wavelengths for maximum excitation and emission of the fluorescent probe should first be measured. An example of such a probe is rhodamine (TAMRA)-labeled dexamethasone.
The affinity of the probe for the steroid receptor was then determined in a titration experiment. The fluorescence polarization value of the probe in assay buffer was measured on an SLM-8100 fluorometer using the excitation and emission maximum values described above. Aliquots of expression vector lysate were added and fluorescence polarization was measured after each addition until no further change in polarization value was observed. Non-linear least squares regression analysis was used to calculate the dissociation constant of the probe from the polarization values obtained for lysate binding to the probe.
Step 2. Screening for Inhibitors of Probe Binding
This assay uses fluorescence polarization (FP) to quantitate the ability of test compounds to compete with tetramethyl rhodamine (TAMRA)-labeled dexamethasone for binding to a human glucocorticoid receptor (GR) complex prepared from an insect expression system. The assay buffer was: 10 mM TES, 50 mM KCl, 20 mM Na2MoO4.2H2O, 1.5 mM EDTA, 0.04% w/v CHAPS, 10% v/v glycerol, 1 mM dithiothreitol, pH 7.4. Test compounds were dissolved to 1 mM in neat DMSO and then further diluted to 10×assay concentration in assay buffer supplemented with 10% v/v DMSO. Test compounds were serially diluted at 10×assay concentrations in 10% DMSO-containing buffer in 96-well polypropylene plates. Binding reaction mixtures were prepared in 96-well black Dynex microtiter plates by sequential addition of the following assay components to each well: […] of 10×test compound solution, 85 μL of GR-containing baculovirus lysate diluted 1:170 in assay buffer, and 50 μL of 15 nM TAMRA-labeled dexamethasone. Positive controls were reaction mixtures containing no test compound; negative controls (blanks) were reaction mixtures containing 0.7 μM to 2 μM dexamethasone. The binding reactions were incubated for 1 hour at room temperature and then read for fluorescence polarization in the LJL Analyst set to 550 nm excitation and 580 nm emission, with the Rhodamine 561 dichroic mirror installed. IC50 values were determined by iterative non-linear curve fitting of the FP signal data to a 4-parameter logistic equation.

Activity in the GR binding assay, demonstrated activity:
COc1ccc(F)cc1C(C)(C)CC(Cc1ccnc2ccccc12)(NCC(C)C)C(F)(F)F (stereo not drawn) [Compound 27, [3-(5-Fluoro-2-methoxy-phenyl)-3-methyl-1-quinolin-4-ylmethyl-1-trifluoromethyl-butyl]-isobutyl-amine]
CNC(Cc1ccnc2ccccc12)(CC(C)(C)c1cc(F)ccc1OC)C(F)(F)F (stereo not drawn) [Compound 24, [3-(5-Fluoro-2-methoxy-phenyl)-3-methyl-1-quinolin-4-ylmethyl-1-trifluoromethyl-butyl]-methyl-amine]
COc1ccc(F)cc1C(C)(C)CC(N)(Cc1cc2ccccc2[nH]1)C(F)(F)F (stereo not drawn) [Compound 2, 3-(5-Fluoro-2-methoxy-phenyl)-1-(1H-indol-2-ylmethyl)-3-methyl-1-trifluoromethyl-butylamine]
COc1ccc(F)cc1C(C)(C)CC(N)(Cc1ccnc2ccccc12)C(F)(F)F (stereo not drawn) [Compound 12, 3-(5-Fluoro-2-methoxy-phenyl)-3-methyl-1-quinolin-4-ylmethyl-1-trifluoromethyl-butylamine]
CCCNC(Cc1ccnc2ccccc12)(CC(C)(C)c1cc(F)ccc1OC)C(F)(F)F (stereo not drawn) [Compound 26, [3-(5-Fluoro-2-methoxy-phenyl)-3-methyl-1-quinolin-4-ylmethyl-1-trifluoromethyl-butyl]-propyl-amine]
CCCCNC(Cc1ccnc2ccccc12)(CC(C)(C)c1cc(F)ccc1OC)C(F)(F)F (stereo not drawn) [Compound 28, Butyl-[3-(5-fluoro-2-methoxy-phenyl)-3-methyl-1-quinolin-4-ylmethyl-1-trifluoromethyl-butyl]-amine]
